From patent US8952024B2, “Herbicidal pyrimidone derivatives” (E I du Pont de Nemours and Company, priority 2009, dated 2015)

How the values were obtained:
Type in all cases: in vivo
[1] = tested on: morningglory (Ipomoea spp.); experiment: Test A pre-/postemergence plant response
Description: (§1) Seeds of barnyardgrass (Echinochloa crus-galli), large crabgrass (Digitaria sanguinalis), giant foxtail (Setaria faberii), morningglory (Ipomoea spp.), pigweed (Amaranthus retroflexus), velvetleaf (Abutilon theophrasti), wheat (Triticum aestivum) and corn (Zea mays) were planted into a blend of loam soil and sand and treated preemergence with a directed soil spray using test chemicals formulated in a non-phytotoxic solvent mixture which included a surfactant. At the same time these species were also treated with postemergence applications of test compounds formulated in the same manner.
(§2) Plants ranged in height from two to ten cm and were in the one- to two-leaf stage for the postemergence treatment. Treated plants and untreated controls were maintained in a greenhouse for approximately ten days, after which time all treated plants were compared to untreated controls and visually evaluated for injury. Plant response ratings, summarized in Table A, are based on a 0 to 100 scale where 0 is no effect and 100 is complete control. A dash (-) response means no test result.

[2] = tested on: corn (Zea mays); experiment: Test A pre-/postemergence plant response
Description: as §1, §2

[3] = tested on: velvetleaf (Abutilon theophrasti); experiment: Test A pre-/postemergence plant response
Description: as §1, §2

[4] = tested on: large crabgrass (Digitaria sanguinalis); experiment: Test A pre-/postemergence plant response
Description: as §1, §2

[5] = tested on: wheat (Triticum aestivum); experiment: Test A pre-/postemergence plant response
Description: as §1, §2

[6] = tested on: pigweed (Amaranthus retroflexus); experiment: Test A pre-/postemergence plant response
Description: as §1, §2

[7] = tested on: giant foxtail (Setaria faberii); experiment: Test A pre-/postemergence plant response
Description: as §1, §2

[8] = tested on: barnyardgrass (Echinochloa crus-galli); experiment: Test A pre-/postemergence plant response
Description: as §1, §2

[9] = tested on: umbrella sedge (Cyperus difformis); experiment: Test B flooded paddy test; settings: for Plant response rating, Flood, Sedge, Umbrella: 250 g ai/ha, flooded paddy test, visual rating on 0 to 100 scale (0 no effect, 100 complete control) after 13 to 15 days; for Plant response rating, Sedge, Umbrella: Flood (flooded paddy test), 13 to 15 days; for Sedge, Umbrella plant response rating: Flood, 31 g ai/ha, scale 0 to 100 (0 no effect, 100 complete control)
In short: (§3)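 Plants were grown to the 2-leaf stage, then pots were flooded to 3 cm above the soil and compounds were applied directly into the paddy water. That depth was held throughout. After 13 to 15 days in a greenhouse, injury was visually rated against controls on a 0–100 scale.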

[10] = tested on: rice (Oryza sativa); experiment: Test B flooded paddy test; settings: for Plant response rating, Flood, Rice: 250 g ai/ha, flooded paddy test, visual rating on 0 to 100 scale (0 no effect, 100 complete control) after 13 to 15 days; for Plant response rating, Rice: Flood (flooded paddy test), 13 to 15 days; for Rice plant response rating: Flood, 31 g ai/ha, scale 0 to 100 (0 no effect, 100 complete control)
In short: as §3

[11] = tested on: barnyardgrass (Echinochloa crus-galli); experiment: Test B flooded paddy test; settings: for Plant response rating, Flood, Barnyardgrass: 250 g ai/ha, flooded paddy test, visual rating on 0 to 100 scale (0 no effect, 100 complete control) after 13 to 15 days; for Plant response rating, Barnyardgrass: Flood (flooded paddy test), 13 to 15 days; for Barnyardgrass plant response rating: Flood, 31 g ai/ha, scale 0 to 100 (0 no effect, 100 complete control)
In short: as §3

[12] = tested on: ducksalad (Heteranthera limosa); experiment: Test B flooded paddy test; settings: for Plant response rating, Flood, Ducksalad: 250 g ai/ha, flooded paddy test, visual rating on 0 to 100 scale (0 no effect, 100 complete control) after 13 to 15 days; for Plant response rating, Ducksalad: Flood (flooded paddy test), 13 to 15 days; for Ducksalad plant response rating: Flood, 31 g ai/ha, scale 0 to 100 (0 no effect, 100 complete control)
In short: as §3

[13] = Postemergence, 125 g ai/ha, 0 to 100 scale where 0 is no effect and 100 is complete control
[14] = Postemergence, 500 g ai/ha, 0 to 100 scale, 0 = no effect, 100 = complete control, approx. ten days
[15] = Preemergence, 125 g ai/ha, 0 to 100 scale, 0 = no effect, 100 = complete control
[16] = Preemergence, 500 g ai/ha, visual injury, 0 to 100 scale (0 no effect, 100 complete control), approx. ten days
[17] = Preemergence, 500 g ai/ha, 0 to 100 scale, 0 = no effect, 100 = complete control
[18] = 62 g ai/ha, scale of 0 to 100 where 0 is no effect and 100 is complete control
[19] = 125 g ai/ha, scale 0 to 100, 0 is no effect, 100 is complete control

Cc1ccc(Cl)cc1-n1c(-c2cccc(Cl)c2)ncc(C(=O)C2=C(O)CCCC2=O)c1=O [Compound 148]
60: Plant response rating, Corn [2, 14] | Plant response rating, Pigweed [6, 16] | Plant response rating, Foxtail, Giant [7, 13]
20: Plant response rating, Rice [10, 19] | Rice plant response rating [10]
70: Plant response rating, Crabgrass, Large [4, 13]
90: Plant response rating, Crabgrass, Large [4, 14] | Plant response rating, Pigweed [6, 13] | Plant response rating, Foxtail, Giant [7, 14] | Plant response rating, Barnyardgrass [8, 13] | Plant response rating, Ducksalad [12, 18] | Plant response rating, Ducksalad [12, 19] | Ducksalad plant response rating [12]
0: Plant response rating, Morningglory [1, 15] | Plant response rating, Morningglory [1, 16] | Plant response rating, Corn [2, 13] | Plant response rating, Corn [2, 15] | Plant response rating, Corn [2, 16] | Plant response rating, Crabgrass, Large [4, 15] | Plant response rating, Wheat [5, 13] | Plant response rating, Wheat [5, 14] | Plant response rating, Wheat [5, 15] | Plant response rating, Wheat [5, 17] | Plant response rating, Pigweed [6, 15] | Plant response rating, Foxtail, Giant [7, 15] | Plant response rating, Barnyardgrass [11, 18] | Barnyardgrass plant response rating [11]
15: Plant response rating, Barnyardgrass [11, 19]
50: Plant response rating, Crabgrass, Large [4, 16] | Plant response rating, Flood, Rice [10] | Plant response rating, Flood, Barnyardgrass [11]
10: Plant response rating, Foxtail, Giant [7, 16] | Plant response rating, Barnyardgrass [8, 15] | Plant response rating, Rice [10, 18]
30: Plant response rating, Velvetleaf [3, 15] | Plant response rating, Barnyardgrass [8, 16]
85: Plant response rating, Sedge, Umbrella [9, 19]
100: Plant response rating, Morningglory [1, 13] | Plant response rating, Morningglory [1, 14] | Plant response rating, Velvetleaf [3, 13] | Plant response rating, Velvetleaf [3, 14] | Plant response rating, Pigweed [6, 14] | Plant response rating, Barnyardgrass [8, 14] | Plant response rating, Flood, Ducksalad [12]
80: Plant response rating, Velvetleaf [3, 17] | Plant response rating, Sedge, Umbrella [9, 18] | Sedge, Umbrella plant response rating [9]
95: Plant response rating, Flood, Sedge, Umbrella [9]

COc1ccc(-n2c(-c3cccc(Cl)c3)ncc(C(=O)C3=C(O)CCCC3=O)c2=O)cc1 [Compound 151]
15: Plant response rating, Rice [10, 19] | Plant response rating, Barnyardgrass [11, 18]
40: Plant response rating, Morningglory [1, 13]
90: Plant response rating, Barnyardgrass [8, 14]
0: Plant response rating, Corn [2, 13] | Plant response rating, Corn [2, 15] | Plant response rating, Corn [2, 16] | Plant response rating, Wheat [5, 13] | Plant response rating, Wheat [5, 15] | Plant response rating, Rice [10, 18] | Barnyardgrass plant response rating [11]
55: Plant response rating, Flood, Barnyardgrass [11]
70: Plant response rating, Velvetleaf [3, 17] | Plant response rating, Crabgrass, Large [4, 14] | Plant response rating, Pigweed [6, 16] | Plant response rating, Foxtail, Giant [7, 14]
60: Plant response rating, Foxtail, Giant [7, 16] | Plant response rating, Barnyardgrass [8, 13]
80: Plant response rating, Ducksalad [12, 18] | Ducksalad plant response rating [12]
100: Plant response rating, Morningglory [1, 14] | Plant response rating, Velvetleaf [3, 13] | Plant response rating, Velvetleaf [3, 14] | Plant response rating, Pigweed [6, 13] | Plant response rating, Pigweed [6, 14] | Plant response rating, Barnyardgrass [8, 16] | Plant response rating, Flood, Sedge, Umbrella [9] | Plant response rating, Sedge, Umbrella [9, 19] | Plant response rating, Flood, Ducksalad [12] | Plant response rating, Ducksalad [12, 19]
30: Plant response rating, Morningglory [1, 16] | Plant response rating, Crabgrass, Large [4, 13] | Plant response rating, Barnyardgrass [11, 19]
85: Plant response rating, Sedge, Umbrella [9, 18] | Sedge, Umbrella plant response rating [9]
50: Plant response rating, Velvetleaf [3, 15] | Plant response rating, Crabgrass, Large [4, 16] | Plant response rating, Pigweed [6, 15] | Plant response rating, Flood, Rice [10]
10: Plant response rating, Corn [2, 14] | Plant response rating, Crabgrass, Large [4, 15]
20: Plant response rating, Wheat [5, 14] | Plant response rating, Wheat [5, 17] | Plant response rating, Foxtail, Giant [7, 13] | Plant response rating, Foxtail, Giant [7, 15] | Plant response rating, Barnyardgrass [8, 15] | Rice plant response rating [10]

CCCn1c(C2CC2)ncc(C(=O)C2=C(O)CCCC2=O)c1=O [Compound 153]
0: Plant response rating, Corn [2, 13] | Plant response rating, Wheat [5, 13] | Plant response rating, Wheat [5, 15] | Plant response rating, Sedge, Umbrella [9, 18] | Sedge, Umbrella plant response rating [9] | Plant response rating, Barnyardgrass [11, 18] | Barnyardgrass plant response rating [11] | Ducksalad plant response rating [12]
80: Plant response rating, Crabgrass, Large [4, 15] | Plant response rating, Foxtail, Giant [7, 14] | Plant response rating, Barnyardgrass [8, 13] | Plant response rating, Barnyardgrass [8, 16] | Plant response rating, Sedge, Umbrella [9, 19]
35: Plant response rating, Rice [10, 18] | Rice plant response rating [10] | Plant response rating, Barnyardgrass [11, 19]
100: Plant response rating, Velvetleaf [3, 13] | Plant response rating, Velvetleaf [3, 14] | Plant response rating, Velvetleaf [3, 15] | Plant response rating, Velvetleaf [3, 17] | Plant response rating, Crabgrass, Large [4, 16] | Plant response rating, Pigweed [6, 13] | Plant response rating, Pigweed [6, 14] | Plant response rating, Pigweed [6, 15] | Plant response rating, Pigweed [6, 16] | Plant response rating, Flood, Ducksalad [12] | Plant response rating, Ducksalad [12, 19]
90: Plant response rating, Crabgrass, Large [4, 13] | Plant response rating, Crabgrass, Large [4, 14] | Plant response rating, Barnyardgrass [8, 14]
60: Plant response rating, Morningglory [1, 14]
55: Plant response rating, Rice [10, 19]
50: Plant response rating, Morningglory [1, 13]
45: Plant response rating, Flood, Barnyardgrass [11]
70: Plant response rating, Morningglory [1, 16] | Plant response rating, Foxtail, Giant [7, 13] | Plant response rating, Foxtail, Giant [7, 16]
20: Plant response rating, Morningglory [1, 15] | Plant response rating, Corn [2, 14] | Plant response rating, Corn [2, 15] | Plant response rating, Corn [2, 16] | Plant response rating, Wheat [5, 17] | Plant response rating, Foxtail, Giant [7, 15]
10: Plant response rating, Wheat [5, 14]
95: Plant response rating, Flood, Sedge, Umbrella [9]
40: Plant response rating, Barnyardgrass [8, 15]
65: Plant response rating, Flood, Rice [10] | Plant response rating, Ducksalad [12, 18]

Cc1ccc(F)cc1-n1c(-c2cccc(Br)c2)ncc(C(=O)C2=C(O)CCCC2=O)c1=O [Compound 154]
80: Plant response rating, Velvetleaf [3, 17] | Plant response rating, Pigweed [6, 16]
30: Plant response rating, Morningglory [1, 13] | Plant response rating, Pigweed [6, 15] | Plant response rating, Foxtail, Giant [7, 16]
95: Plant response rating, Sedge, Umbrella [9, 18] | Plant response rating, Sedge, Umbrella [9, 19]
50: Plant response rating, Crabgrass, Large [4, 16] | Plant response rating, Ducksalad [12, 18]
60: Plant response rating, Pigweed [6, 13] | Plant response rating, Foxtail, Giant [7, 13] | Plant response rating, Rice [10, 19]
100: Plant response rating, Velvetleaf [3, 13] | Plant response rating, Velvetleaf [3, 14] | Plant response rating, Crabgrass, Large [4, 14] | Plant response rating, Pigweed [6, 14] | Plant response rating, Flood, Sedge, Umbrella [9] | Plant response rating, Flood, Ducksalad [12]
90: Plant response rating, Foxtail, Giant [7, 14] | Plant response rating, Barnyardgrass [8, 13] | Plant response rating, Barnyardgrass [8, 14]
70: Plant response rating, Morningglory [1, 14] | Plant response rating, Crabgrass, Large [4, 13] | Plant response rating, Ducksalad [12, 19]
75: Plant response rating, Flood, Rice [10]
0: Plant response rating, Morningglory [1, 15] | Plant response rating, Morningglory [1, 16] | Plant response rating, Corn [2, 13] | Plant response rating, Corn [2, 15] | Plant response rating, Corn [2, 16] | Plant response rating, Wheat [5, 13] | Plant response rating, Wheat [5, 14] | Plant response rating, Wheat [5, 15] | Plant response rating, Wheat [5, 17] | Plant response rating, Barnyardgrass [8, 15] | Sedge, Umbrella plant response rating [9] | Plant response rating, Rice [10, 18] | Rice plant response rating [10] | Plant response rating, Barnyardgrass [11, 18] | Plant response rating, Barnyardgrass [11, 19] | Barnyardgrass plant response rating [11] | Ducksalad plant response rating [12]
40: Plant response rating, Velvetleaf [3, 15] | Plant response rating, Barnyardgrass [8, 16] | Plant response rating, Flood, Barnyardgrass [11]
10: Plant response rating, Corn [2, 14] | Plant response rating, Crabgrass, Large [4, 15] | Plant response rating, Foxtail, Giant [7, 15]
